{"source": "patent US20090258850A1", "about": "“STABILIZED THERAPEUTIC COMPOSITIONS AND FORMULATIONS” (priority 2007, published 2009)", "key": {"non-irradiated monkeys": {"system": "non-irradiated monkeys", "settings": "15 mg/Kg/d i.m. x5 days, no TBI", "procedure": "Primates used in this study were purpose bred rhesus monkeys (Macaca Mulatta), weighing 2.5 to 4.0 Kg each and aged 2 to 3 years. 5-Androstene-3β,17β-diol (5-AED), prepared as a 100 mg/mL aqueous suspension using 7.4 mM sodium phosphate buffer, pH 6.0, containing 0.5% polysorbate 80, 0.02% benzalkonium chloride and 4.8% mannitol and its vehicle, consisting of the identical formulation without 5-AED, was administered intramuscularly (i.m.) at a dose of 15 mg/kg/d (150 μL/Kg/d), for 5 consecutive days. […] 5-AED and vehicle were administered by deep intramuscular injections into alternating left and right m. vastus lateralis. In the second study, 10 animals (3 males and 2 females in each group) received either 15 mg/Kg/d (150 μL/Kg/d), 5-AED in a stabilized formulation or vehicle for 5 consecutive days, but were not subjected to TBI.\nClinical pathology was conducted as follows: Bone marrow was aspirated under neurolept anesthesia using Ketalar (Apharmo, Arnhem, the Netherlands) and Domitor (Pfizer, Capelle a/d lJssel, The Netherlands). Small bone marrow aspirates for analytical purposes were taken from the shafts of the femurs or humeri using pediatric spinal needles and collected in bottles containing 2 mL HEPES buffered Hanks' balanced salt solution (HBBS) with 200 IU sodium heparin/mL (Leo Pharmaceutical Products, Weesp, the Netherlands). Low-density cells were isolated using Lymphoprep (density 1.077, Fresenius, Oslo, Norway) separation. Cells were plated in 35-mm dishes (Falcon 1008, Becton Dickinson, Leiden, The Netherlands) in 1 mL enriched Dulbecco's medium containing 0.8% methylcellulose, 5% FCS, and additives. […] Colony counts were calculated per mL of bone marrow aspirated using the recovery of cells over the Ficoll density gradient. […] Complete blood cell counts were measured daily using an ABC-vet animal blood counter (Scil, ABX diagnostics, Montpellier, France). […] Measurements were done using a FACSCalibur (Becton Dickinson, Leiden, The Netherlands) and 50,000 events were collected in duplicate and analyzed using the CellQuest (Becton Dickinson) software. […]"}, "[1]": {"system": "BALB/c mice exposed to 6 Gy TBI", "experiment": "Radioprotective effect in BALB/c mice after midlethal 6 Gy TBI", "assay_type": "in vivo", "experimental": "(§1) Combination Treatment with androst-5-ene-3β,17β-diol formulation and TPO. For direct measurements of the radioprotective effect of 5-AED, BALB/c mice were exposed to a midlethal dose of 6 Gy TBI. Two hours after TBI, mice were injected IM with 40 mg/kg 5-AED or the carrier as placebo, with or without 0.225 μg TPO or 10 μg Peg-G-CSF IP. Radioprotective effects of 5-AED on immature repopulating cell subsets were assessed by exposing BALB/c donor mice to 3 fractions of 2 Gy TBI, separated by 24 hours, and treatment with 40 mg/Kg/d 5-AED or the carrier IM, or 0.7 μg TPO IP after each fraction or a single injection of 10 μg Peg-G-CSF IP after the first fraction. Twenty four hours after the last fraction, bone marrow of donor mice was examined for immature cell content per femur using the marrow repopulating ability (MRA day 13) assay and the CFU-S day 12 after transplantation in 8 Gy irradiated mice."}, "[2]": {"system": "immature repopulating cells in bone marrow of BALB/c donor mice", "experiment": "Immature repopulating cell subsets (CFU-S day 12, MRA day 13) after fractionated 3x2 Gy TBI of BALB/c donor mice", "assay_type": "in vivo", "settings": "fractionated 3×2 Gy TBI; for increase in CFU-S day 12 relative to radiation controls: 40 mg/Kg/d 5-AED IM, 0.7 μg TPO IP after each fraction", "experimental": "as §1"}, "[3]": {"system": "rhesus monkeys subjected to 6 Gy TBI", "settings": "in vivo"}}}
{"molecule": "C[C@]12CC[C@H]3[C@@H](CC=C4C[C@@H](O)CC[C@@]43C)[C@@H]1CC[C@@H]2O", "note": "[5-AED, androst-5-ene-3β,17β-diol]", "values": [{"measurement": "day of maximum neutrophilic granulocyte increase after initiation of the treatment", "setting": "non-irradiated monkeys", "value": 2, "unit": "days"}, {"measurement": "effect on other hematopoietic lineages, bone marrow cellularity and progenitor cell content", "setting": "non-irradiated monkeys", "value": "did not affect"}, {"measurement": "increase from baseline levels in neutrophilic granulocytes in the peripheral blood", "setting": "non-irradiated monkeys; n=5", "value": 3.6, "unit": "fold"}, {"measurement": "multilineage recovery (white blood cells, platelets, red blood cells, bone marrow cellularity, colony forming cells)", "setting": "[1]; 40 mg/kg IM 2 hours after 6 Gy TBI, 14 days post-TBI vs placebo", "value": "accelerated multilineage recovery"}, {"measurement": "effect of increasing the dose on multilineage recovery", "setting": "[1]; dose up to 200 mg/kg", "value": "did not augment this effect"}, {"measurement": "increase in CFU-S day 12 relative to radiation controls", "setting": "[2]", "value": 5, "unit": "fold"}, {"measurement": "MRA, expressed as GM-CFU per femur at 13 days after transplantation", "setting": "[2]; 40 mg/Kg/d IM, range 0-5785", "value": 1002, "unit": "colonies"}, {"measurement": "bone marrow cellularity", "setting": "[3]", "value": "8.7±5.3 ×10^6 cells/mL bone marrow aspirate"}, {"measurement": "day reticulocytes reached levels >0.05×10^9/mL in peripheral blood", "setting": "[3]", "value": "19.0±1.1", "unit": "day"}, {"measurement": "direct local or systemic toxic effects", "setting": "[3]", "value": "not observed"}, {"measurement": "edema", "setting": "[3]", "value": "transient edema, which resolved without sequela"}, {"measurement": "increase in body weight due to fluid retention", "setting": "[3]", "value": "up to 13.6%"}, {"measurement": "increase of CD34+ cells in BM in comparison to HERF-418 treated monkeys", "setting": "[3]", "value": 90, "unit": "fold"}, {"measurement": "neutrophil recovery", "setting": "[3]", "value": "accelerated neutrophil recovery"}, {"measurement": "reduction of the period of leukopenia", "setting": "[3]", "value": 4, "unit": "days"}, {"measurement": "shortening of the time to transfusion-independence", "setting": "[3]", "value": 4, "unit": "days"}, {"measurement": "transfusions needed to maintain platelets levels of >40×10^6/mL", "setting": "[3]", "value": "1.3±0.5"}]}
{"molecule": "TPO: TPO injected IP in mice; promotes CFU-S reconstitution (protein, UniProt P40226 22-356, looked up) Thrombopoietin: SPVAPACDPRLLNKLLRDSHLLHSRLSQCPDVDPLSIPVLLPAVDFSLGEWKTQTEQSKAQDILGAVSLLLEGVMAARGQLEPSCLSSLLGQLSGQVRLLLGALQGLLGTQLPLQGRTTAHKDPNALFLSLQQLLRGKVRFLLLVEGPTLCVRRTLPTTAVPSSTSQLLTLNKFPNRTSGLLETNFSVTARTAGPGLLSRLQGFRVKITPGQLNQTSRSPVQISGYLNRTHGPVNGTHGLFAGTSLQTLEASDISPGAFNKGSLAFNLQGGLPPSPSLAPDGHTPFPPSPALPTTHGSPPQLHPLFPDPSTTMPNSTAPHPVTMYPHPRNLSQET", "values": [{"measurement": "increase in CFU-S day 12 relative to radiation controls", "setting": "[2]", "value": 7, "unit": "fold"}]}
{"molecule": "Peg-G-CSF: Peg-G-CSF injected IP in mice (protein, UniProt P09919 31-207, looked up, PEGylated, Peg-G-CSF injected IP in mice) Granulocyte …: TPLGPASSLPQSFLLKCLEQVRKIQGDGAALQEKLVSECATYKLCHPEELVLLGHSLGIPWAPLSSCPSQALQLAGCLSQLHSGLFLYQGLLQALEGISPELGPTLDTLQLDVADFATTIWQQMEELGMAPALQPTQGAMPAFASAFQRRAGGVLVASHLQSFLEVSYRVLRHLAQP", "values": [{"measurement": "effect on CFU-S day 12", "setting": "[2]; single injection 10 μg Peg-G-CSF IP after first fraction", "value": "did not affect"}]}
